Experiment [1] concerns the target T1, FPR1 (Homo sapiens (Human), UniProt P21462). As to the kind of experiment: Cyclic adenosine monophosphate (cAMP) assay, CHO-K1 cells stably overexpressing hFPR1. It is filed as cell-based. To be noted: 2.5 μM Forskolin and 0.25 nM WKYMVm (FPR1 agonist). The protocol:
Cyclic Adenosine Monophosphate (cAMP) Assay
CHO-K1 cells stably overexpressing hFPR1 were plated into 384-well cell culture plates (2,000/well/5 μL) in 1× Stimulation Buffer (LANCE Ultra cAMP Kit, Perkin Elmer, TRF0263). 1 μL compound solution (prepared in ddH2O containing 0.2% DMSO) was added to each well. Plates were centrifuged briefly, and cells were incubated at 37° C. in 5% CO2 for 10 minutes. 4 μL solution containing 2.5 μM Forskolin and 0.25 nM WKYMVm (an FPR1 agonist, GLPBIO, GC15140) was then added to each well. 5 μL of Eu-cAMP solution (diluted to manufacturer's recommended working concentration in Detection Buffer, LANCE Ultra cAMP Kit) and 5 μL of ULight-anti-cAMP solution (diluted in Detection Buffer, LANCE Ultra cAMP Kit) were added to each well. Plates were centrifuged briefly, and cells were incubated at room temperature for 1 hour. Fluorescence emission at 665 nm and 620 nm from the samples was measured by a Perkin Elmer Envision instrument.
(§1) The effects of the compounds of the present disclosure on regulating the FPR1-mediated cell signaling were measured by monitoring the cellular cAMP level change and anti-reactive oxygen species formation in human neutrophils in the presence of an FPR1 agonist, respectively, as illustrated by the examples in Table 1.

The target of experiment [2] is T1, FPR1. As to the kind of experiment: Reactive oxygen species (ROS) assay in human neutrophils stimulated with fMLP. It is filed as cell-based. To be noted: human neutrophils from whole blood; fMLP (500 nM); DCFH-DA fluorescence; read-out: Anti-ROS IC50. As for the experimental part:
Reactive Oxygen Species (ROS) Assay
Human whole blood was collected, and ACK lysis buffer (ThermoFisher, A1049201) was added at 3 times the volume of the blood sample to lyse the red blood cells. The sample was incubated on ice for 15 minutes, and gently mixed twice during the incubation. 10 mL DPBS was then added, and the sample was centrifuged for 8 minutes. After removing the supernatant, remaining cells were resuspended in RPMI1640 medium containing 3% FBS and centrifuged again for 10 minutes. After removing the supernatant, cells were again resuspended in RPMI1640 medium containing 3% FBS. Neutrophil cell count was determined using FACS analysis by APC-labeled CD11b antibody (Biolegend, 101211) and FITC-labeled CD66b antibody (Biolegend, 305104). Neutrophils were then plated into 96-well plates (300,000/well). Plates were centrifuged and supernatant was removed. Cells were resuspended in 80 μL of compound solution (prepared in RPMI1640 medium containing 3% FBS), then incubated at room temperature for 15 minutes. 20 μL solution containing DCFH-DA (at the manufacturer's recommended concentration, Yeasen Biotechnology, 50101ES01) and fMLP (500 nM) was then added. Cells were incubated at 37° C. in 5% CO2 for 20 minutes away from light. After incubation, cells were placed on ice for 5 minutes, washed twice with 200 μL ice-cold DPBS, then resuspended in ice-cold DPBS at 100 µL/well. Fluorescence from each sample was measured at 485 nm excitation and 535 nm emission.
as §1

For orientation: pIC50 means −log10 of the IC50, conventionally taken in molar units.

pIC50: −log10 of the molar value. Some results are limits rather than exact numbers.

T1 sequence (P21462 whole entry): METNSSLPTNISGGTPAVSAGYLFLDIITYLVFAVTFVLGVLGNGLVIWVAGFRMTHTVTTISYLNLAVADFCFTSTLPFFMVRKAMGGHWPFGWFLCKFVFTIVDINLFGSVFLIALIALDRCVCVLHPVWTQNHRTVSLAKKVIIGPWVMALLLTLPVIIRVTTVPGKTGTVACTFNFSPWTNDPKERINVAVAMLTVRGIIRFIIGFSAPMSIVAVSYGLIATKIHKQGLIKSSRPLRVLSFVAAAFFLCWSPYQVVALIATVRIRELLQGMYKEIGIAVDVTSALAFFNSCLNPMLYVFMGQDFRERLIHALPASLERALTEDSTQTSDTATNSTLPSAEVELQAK

In the case of `CC[C@H](C)NC(=O)c1c(NS(=O)(=O)c2ccccc2)c(-c2ccc(F)cc2)nn1C` [Compound 3, (S)—N-(sec-butyl)-3-(4-fluorophenyl)-1-methyl-4-(phenylsulfonamido)-1H-pyrazole-5-carboxamide], in experiment [1], the pIC50 was below 4.60. As for `Cc1ccc(S(=O)(=O)Nc2c(C3=CCOCC3)nn(C)c2C(=O)N[C@@H](C)C(C)(C)C)cc1` [Compound 16, (S)-3-(3,6-dihydro-2H-pyran-4-yl)-N-(3,3-dimethylbutan-2-yl)-1-methyl-4-((4-methylphenyl)sulfonamido)-1H-pyrazole-5-carboxamide], the negative logarithm of the IC50 (pIC50) in experiment [1] is 4.60 to 6.00; in experiment [2], 6.00 to 7.00. Regarding `C[C@H](NC(=O)c1c(NS(=O)(=O)c2ccc(C3CC3)cc2)c(-c2ccc(F)cc2)nn1C)C(C)(C)C` [Compound 26, (S)-4-((4-cyclopropylphenyl)sulfonamido)-N-(3,3-dimethylbutan-2-yl)-3-(4-fluorophenyl)-1-methyl-1H-pyrazole-5-carboxamide], the pIC50 in experiment [1] is 4.60 to 6.00; in experiment [2], 6.00 to 7.00.

`CO[C@H]1CC[C@@H](c2nn(C)c(C(=O)N[C@@H](C)C(C)(C)C)c2NS(=O)(=O)c2ccc(Cl)cc2)CC1` [Compound 19, 4-((4-chlorophenyl)sulfonamido)-N—((S)-3,3-dimethylbutan-2-yl)-3-((1S,4R)-4-methoxycyclohexyl)-1-methyl-1H-pyrazole-5-carboxamide]: the negative-log IC50 (pIC50) is 6.00 to 7.00 in experiment [1] and above 7.00 in experiment [2]. On the same counts, the results for `CO[C@H]1CC[C@@H](c2nn(C)c(C(=O)N[C@@H](C)C(C)(C)C)c2NS(=O)(=O)c2ccc(C3CC3)cc2)CC1` [Compound 20, 4-((4-cyclopropylphenyl)sulfonamido)-N—((S)-3,3-dimethylbutan-2-yl)-3-((1S,4R)-4-methoxycyclohexyl)-1-methyl-1H-pyrazole-5-carboxamide] are 6.00 to 7.00 and above 7.00.

On to `C[C@H](NC(=O)c1c(NS(=O)(=O)c2ccc(Cl)cc2)c(-c2ccccc2C(F)F)nn1C)C(C)(C)C` [Compound 39, (S)-4-((4-chlorophenyl)sulfonamido)-3-(2-(difluoromethyl)phenyl)-N-(3,3-dimethylbutan-2-yl)-1-methyl-1H-pyrazole-5-carboxamide], for which the negative-log IC50 (pIC50) in experiment [1] and in experiment [2] was 6.00 to 7.00 in each case. Take `C[C@H](NC(=O)c1c(NS(=O)(=O)c2ccc(C#N)cc2)c(C2=CCC(F)(F)CC2)nn1C)C(C)(C)C` [Compound 43, (S)-4-((4-cyanophenyl)sulfonamido)-3-(4,4-difluorocyclohex-1-en-1-yl)-N-(3,3-dimethylbutan-2-yl)-1-methyl-1H-pyrazole-5-carboxamide]: the negative-log IC50 (pIC50) was 4.60 to 6.00 in experiment [1] and 6.00 to 7.00 in experiment [2]. On the same counts, the results for `C[C@H](NC(=O)c1c(NS(=O)(=O)c2ccc(Cl)cc2)c(C2CCC(F)(F)CC2)nn1C)C(C)(C)C` [Compound 37, (S)-4-((4-chlorophenyl)sulfonamido)-3-(4,4-difluorocyclohexyl)-N-(3,3-dimethylbutan-2-yl)-1-methyl-1H-pyrazole-5-carboxamide] are 6.00 to 7.00 and 6.00 to 7.00. With `Cc1ccc(S(=O)(=O)Nc2c(C3(O)CCOCC3)nn(C)c2C(=O)N[C@@H](C)C(C)(C)C)cc1` [Compound 31, (S)—N-(3,3-dimethylbutan-2-yl)-3-(4-hydroxytetrahydro-2H-pyran-4-yl)-1-methyl-4-((4-methylphenyl)sulfonamido)-1H-pyrazole-5-carboxamide], the pIC50 in experiment [1] was below 4.60. Same read-out and setting: as for `C[C@H](NC(=O)c1c(NS(=O)(=O)c2ccc(Cl)cc2)c(C2=CCC(F)(F)CC2)nn1C)C(C)(C)C` [Compound 36, (S)-4-((4-chlorophenyl)sulfonamido)-3-(4,4-difluorocyclohex-1-en-1-yl)-N-(3,3-dimethylbutan-2-yl)-1-methyl-1H-pyrazole-5-carboxamide], the figure is below 4.60; as for `Cc1ccc(S(=O)(=O)Nc2c(C3=CCC(F)(F)CC3)nn(C)c2C(=O)N[C@@H](C)C(C)(C)C)cc1` [Compound 29, (S)-3-(4,4-difluorocyclohex-1-en-1-yl)-N-(3,3-dimethylbutan-2-yl)-1-methyl-4-((4-methylphenyl)sulfonamido)-1H-pyrazole-5-carboxamide], below 4.60; as for `Cc1ccc(S(=O)(=O)Nc2c(-c3cccc(OCC(C)C)c3)nn(C)c2C(=O)N[C@@H](C)C(C)(C)C)cc1` [Compound 35, (S)—N-(3,3-dimethylbutan-2-yl)-3-(3-isobutoxyphenyl)-1-methyl-4-((4-methylphenyl)sulfonamido)-1H-pyrazole-5-carboxamide], below 4.60. Take `Cc1ccc(S(=O)(=O)Nc2c(C3=CCC(C#N)CC3)nn(C)c2C(=O)N[C@@H](C)C(C)(C)C)cc1` (stereo partly drawn) [Compound 32, 3-(4-cyanocyclohex-1-en-1-yl)-N—((S)-3,3-dimethylbutan-2-yl)-1-methyl-4-((4-methylphenyl)sulfonamido)-1H-pyrazole-5-carboxamide]: in experiment [1], the pIC50 is 4.60 to 6.00. On to `Cc1ccc(S(=O)(=O)Nc2c(C3=CCC(C)(C)CC3)nn(C)c2C(=O)N[C@@H](C)C(C)(C)C)cc1` [Compound 18, (S)—N-(3,3-dimethylbutan-2-yl)-3-(4,4-dimethylcyclohex-1-en-1-yl)-1-methyl-4-((4-methylphenyl)sulfonamido)-1H-pyrazole-5-carboxamide], for which the pIC50 in experiment [1] was below 4.60. For `Cc1ccc(S(=O)(=O)Nc2c(-c3cccc(OC(F)(F)F)c3)nn(C)c2C(=O)N[C@@H](C)C(C)(C)C)cc1` [Compound 34, (S)—N-(3,3-dimethylbutan-2-yl)-1-methyl-4-((4-methylphenyl)sulfonamido)-3-(3-(trifluoromethoxy)phenyl)-1H-pyrazole-5-carboxamide], in experiment [1], the negative-log IC50 (pIC50) was below 4.60. Take `C[C@H](NC(=O)c1noc(C2CCOCC2)c1NS(=O)(=O)c1ccc(Cl)cc1)C(C)(C)C` [Compound 11, (S)-4-((4-chlorophenyl)sulfonamido)-N-(3,3-dimethylbutan-2-yl)-5-(tetrahydro-2H-pyran-4-yl)isoxazole-3-carboxamide]: the pIC50 in experiment [1] is below 4.60. For the compound `C[C@H](NC(=O)c1c(NS(=O)(=O)c2ccc(Cl)cc2)c(C2CCOCC2)nn1C1CC1)C(C)(C)C` [Compound 10, (S)-4-((4-chlorophenyl)sulfonamido)-1-cyclopropyl-N-(3,3-dimethylbutan-2-yl)-3-(tetrahydro-2H-pyran-4-yl)-1H-pyrazole-5-carboxamide], the negative logarithm of the IC50 (pIC50) in experiment [1] is below 4.60. On the same count and under the same terms, as for `C[C@H](NC(=O)c1c(NS(=O)(=O)c2ccc(Cl)cc2)c(-c2ccncc2)nn1C)C(C)(C)C` [Compound 5, (S)-4-((4-chlorophenyl)sulfonamido)-N-(3,3-dimethylbutan-2-yl)-1-methyl-3-(pyridin-4-yl)-1H-pyrazole-5-carboxamide], the figure is below 4.60; as for `COCc1cncc(-c2nn(C)c(C(=O)N[C@@H](C)C(C)(C)C)c2NS(=O)(=O)c2ccc(Cl)cc2)c1` [Compound 40, (S)-4-((4-chlorophenyl)sulfonamido)-N-(3,3-dimethylbutan-2-yl)-3-(5-(methoxymethyl)pyridin-3-yl)-1-methyl-1H-pyrazole-5-carboxamide], 4.60 to 6.00. In turn, `Cc1ccc(S(=O)(=O)Nc2c(C3=CCOCC3)nn(C)c2C(=O)N[C@@H](C)C(C)(C)C)cc1` [Compound 30, (S)-3-(3,6-dihydro-2H-pyran-4-yl)-N-(3,3-dimethylbutan-2-yl)-1-methyl-4-((4-methylphenyl)sulfonamido)-1H-pyrazole-5-carboxamide] had a negative logarithm of the IC50 (pIC50) in experiment [1] of 4.60 to 6.00.

For the origin of these results see patent US20240018124A1, “MODULATORS OF FPR1 AND METHODS OF USING THE SAME” (BIOFRONT LTD, priority 2021, published 2024).
